Experimental data: ChEMBL document CHEMBL1201862, “PubChem BioAssay data set” (2004)
Activity calls are given as the source filed them.

What was measured:
[1] = target: Disintegrin and metalloproteinase domain-containing protein 17 (Homo sapiens, UniProt P78536); test: exosite inhibitors of ADAM17, dose response, biochemical (AID 743260)
[2] = inhibition of ADAM10 peptide cleavage – biochemical, FRET peptide substrate, recombinant human ADAM10, selectivity assay for ADAM17 exosite inhibitor project, dose response (AID 743259);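 note: ADAM10 enzyme cleaving a FRET peptide substrate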
Paired box protein Pax-8 = Paired box protein Pax-8 (Homo sapiens, UniProt Q06710); test: PAX8 transcriptional activity inhibition in RMG-I – RMG-I cells, luciferase, cherry-pick, dose response (AID 687027); assay type: functional, cell-based;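 note: luciferase reporter driven by Pax8 target thyroperoxidase promoter measured by SteadyGlo luminescence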
[3] = OVCAR-3 cell viability loss – plate reader, dry powder samples, PAX8 inhibitor project, dose response (AID 743044); assay type: functional, cell-based
[4] = OVCAR8 cell viability loss – plate reader, dry powder samples, PAX8 project, dose response (AID 743197); assay type: functional, cell-based; details: OVCAR-8
[5] = target: FAD-linked sulfhydryl oxidase ALR (Homo sapiens, UniProt P55789); test: ALR-catalysed DTT oxidation blockers – biochemical, H2O2 detection, luminescence, cherry-pick, dose response (AID 493248)
[6] = target: T1, Corticotropin-releasing factor receptor 2/Corticotropin-releasing factor-binding protein (Homo sapiens, UniProt P24387+Q13324); test: Dose Response confirmation of uHTS hits for small molecule antagonists of the CRF-binding protein and CRF-R2 receptor complex.; assay type: functional; details: read-out: IC50_Mean
T1 sequence (Q13324 whole entry): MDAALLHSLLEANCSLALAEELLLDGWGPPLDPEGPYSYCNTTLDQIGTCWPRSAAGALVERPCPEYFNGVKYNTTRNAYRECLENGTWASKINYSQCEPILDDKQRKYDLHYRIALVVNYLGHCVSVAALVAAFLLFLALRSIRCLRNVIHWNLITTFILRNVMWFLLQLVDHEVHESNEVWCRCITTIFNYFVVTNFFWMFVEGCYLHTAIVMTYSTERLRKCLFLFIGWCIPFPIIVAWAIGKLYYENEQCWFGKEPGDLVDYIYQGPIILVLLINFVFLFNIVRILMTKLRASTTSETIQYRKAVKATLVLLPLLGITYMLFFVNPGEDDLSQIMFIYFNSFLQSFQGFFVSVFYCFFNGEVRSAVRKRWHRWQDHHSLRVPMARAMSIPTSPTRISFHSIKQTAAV
T1 sequence (P24387 whole entry): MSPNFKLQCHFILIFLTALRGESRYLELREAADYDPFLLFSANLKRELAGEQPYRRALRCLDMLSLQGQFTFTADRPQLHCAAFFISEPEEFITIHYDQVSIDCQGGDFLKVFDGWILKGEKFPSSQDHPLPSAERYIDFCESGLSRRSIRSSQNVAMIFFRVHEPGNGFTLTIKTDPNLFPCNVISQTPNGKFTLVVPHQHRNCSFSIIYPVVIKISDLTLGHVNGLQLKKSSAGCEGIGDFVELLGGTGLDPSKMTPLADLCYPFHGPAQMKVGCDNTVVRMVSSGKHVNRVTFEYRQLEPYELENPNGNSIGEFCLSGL

[7] = target: T1, Corticotropin-releasing factor receptor 2/Corticotropin-releasing factor-binding protein; test: activators of CRF receptor 2 with binding protein – uHTS hits, confirmation (AID 602473); assay type: functional; details: read-out: EC50_Mean
[8] = blockers of CRF-binding protein–CRF-R2 complex – cell-based, uHTS hits, 384-well, dose response (AID 651639); assay type: functional, Homo sapiens; details: read-out: IC50_Mean
[9] = Luminescence Cell-Based Dose Retest to Confirm Inhibitors of Cancer Stem Cells. [Related pubchem assays (depositor defined):AID2717, AID2721]; assay type: functional; details: Homo sapiens
[10] = system: Streptococcus sp. 'group A'; test: Streptococcus pyogenes SK(-)GAS viability under kanamycin – luminescence, BacTiterGlo, confirmation, counter-screen for streptokinase expression inhibitor project, dose response (AID 1900); assay type: functional, organism-based
Streptococcus = test: GAS UMAA2166 growth inhibition – luminescence, BacTiterGlo, counter-screen for streptokinase expression inhibitor project, dose response (AID 1915); assay type: functional, organism-based;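 note: potency for reduction of bacterial viability or growth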
Galanin receptor type 3 = target: T2, Galanin receptor type 3 (Homo sapiens, UniProt O60755); test: Fluorescence-based cell-based primary high throughput dose response assay to identify antagonists of the Galanin Receptor 3 (GalR3).; assay type: functional
T2 sequence (O60755 whole entry): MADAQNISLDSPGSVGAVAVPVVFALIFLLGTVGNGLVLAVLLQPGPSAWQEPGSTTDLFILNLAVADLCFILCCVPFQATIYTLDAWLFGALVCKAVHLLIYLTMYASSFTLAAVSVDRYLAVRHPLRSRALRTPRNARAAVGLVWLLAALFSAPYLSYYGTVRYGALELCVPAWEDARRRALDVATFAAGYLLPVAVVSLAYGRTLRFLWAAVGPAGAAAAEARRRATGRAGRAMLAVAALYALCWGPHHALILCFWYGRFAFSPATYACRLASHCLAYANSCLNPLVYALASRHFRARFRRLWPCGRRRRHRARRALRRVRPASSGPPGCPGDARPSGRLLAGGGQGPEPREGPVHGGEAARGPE

cells = assay type: functional, cell-based; details: HEK-CNG
[11] = viability loss in HeLa cells – cytotoxicity control for MgcRacGAP inhibitor project, dose response (AID 624300); assay type: functional
[12] = blockers of HIV-1 envelope-mediated cell-cell fusion – cherry-pick, dose response (AID 652057); assay type: functional, cell-based
[13] = viability loss in CEM21 cells – cell-based, CellTiter-Glo luminescence, cherry-picked, cytotoxicity control for viral fusion inhibitor project, dose response (AID 652042); assay type: functional;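 note: potency for signal decrease meaning cytotoxicity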
[14] = blockers of HIV-1 ZM109 envelope-driven cell-cell fusion – HeLa effector, CEM target cells, luciferase, cherry-pick, dose response (AID 652058); assay type: functional, cell-based;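 note: luciferase signal from HIV-1 Env mediated cell-cell fusion of effector and target cells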
[15] = off-target signal loss in HeLa-CEM21 co-culture – HeLa F-luc CTL cells, cherry-picked, counter-screen for HIV-1 Env fusion inhibitor project, dose response (AID 652040); assay type: functional, cell-based;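 note: potency for signal decrease marking cytotoxic or nonspecific inhibition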
[16] = HIV-1 AD8 envelope cell-cell fusion blockers – cherry-pick, dose response (AID 652062); assay type: functional, cell-based;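 note: luciferase signal from cell-cell fusion driven by HIV-1 clade B AD8 Env; potency is for inhibitors of fusion seen as a drop in luminescence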
[17] = A549 cell cytotoxicity, dose response, cytotoxicity control, plate reader, cherry-pick, antagonist series (AID 743412); assay type: functional, cell-based
[18] = toxicity toward HepG2 liver cells – cell-based, plate reader, cherry-pick, antagonist series, cytotoxicity control, dose response (AID 743416); assay type: functional
[19] = blockers of bursicon-stimulated LGR2 cAMP reporter – cell-based, HEK293, CRE-luciferase reporter, cherry pick, set 2, dose response (AID 743343); assay type: functional;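 note: transfected cells were stimulated with diluted bursicon conditioned medium after compound addition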
[20] = blockade of melanocortin 4 receptor signaling – cell-based, plate reader, cherry pick, counter-screen for LGR2 antagonist project, dose response (AID 743444); assay type: functional;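 note: transfected HEK 293 cells stimulated with alpha-MSH peptide; potency of inhibitors of the alpha-MSH evoked signal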
[21] = viability loss in HEK293 cells – cell-based, plate reader, cherry-picked samples, cytotoxicity control, dose response (AID 743446); assay type: functional

Disintegrin and metalloproteinase domain-containing protein 17, sequence (P78536 whole entry, the tested form may be a part): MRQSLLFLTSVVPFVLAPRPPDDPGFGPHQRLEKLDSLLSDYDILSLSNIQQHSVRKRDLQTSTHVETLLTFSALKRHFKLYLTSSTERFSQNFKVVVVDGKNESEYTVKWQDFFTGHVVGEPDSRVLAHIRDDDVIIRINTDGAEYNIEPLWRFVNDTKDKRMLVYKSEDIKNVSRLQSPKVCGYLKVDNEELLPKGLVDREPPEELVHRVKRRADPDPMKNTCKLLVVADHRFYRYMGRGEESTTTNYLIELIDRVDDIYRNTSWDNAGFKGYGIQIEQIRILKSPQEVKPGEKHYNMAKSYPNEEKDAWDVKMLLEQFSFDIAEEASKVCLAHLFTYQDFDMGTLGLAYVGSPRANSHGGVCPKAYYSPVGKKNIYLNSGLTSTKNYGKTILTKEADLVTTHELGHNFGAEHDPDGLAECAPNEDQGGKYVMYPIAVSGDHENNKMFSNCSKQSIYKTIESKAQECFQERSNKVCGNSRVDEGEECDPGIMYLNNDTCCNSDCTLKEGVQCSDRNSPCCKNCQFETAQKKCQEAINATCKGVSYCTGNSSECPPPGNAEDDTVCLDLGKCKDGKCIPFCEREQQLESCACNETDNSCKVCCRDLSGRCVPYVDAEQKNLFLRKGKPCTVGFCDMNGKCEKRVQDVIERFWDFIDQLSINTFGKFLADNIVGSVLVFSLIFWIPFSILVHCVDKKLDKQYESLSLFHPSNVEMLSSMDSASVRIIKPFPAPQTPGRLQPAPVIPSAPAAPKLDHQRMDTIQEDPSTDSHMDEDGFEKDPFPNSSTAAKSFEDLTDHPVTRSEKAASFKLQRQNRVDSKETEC
FAD-linked sulfhydryl oxidase ALR, sequence (P55789 whole entry): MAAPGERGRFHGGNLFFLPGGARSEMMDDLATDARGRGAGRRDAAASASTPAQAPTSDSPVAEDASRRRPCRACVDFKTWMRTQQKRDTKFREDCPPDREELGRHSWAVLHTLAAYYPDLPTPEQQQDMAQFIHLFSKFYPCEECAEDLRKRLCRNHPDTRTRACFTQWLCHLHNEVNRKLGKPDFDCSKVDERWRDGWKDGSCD
Paired box protein Pax-8, sequence (Q06710 whole entry): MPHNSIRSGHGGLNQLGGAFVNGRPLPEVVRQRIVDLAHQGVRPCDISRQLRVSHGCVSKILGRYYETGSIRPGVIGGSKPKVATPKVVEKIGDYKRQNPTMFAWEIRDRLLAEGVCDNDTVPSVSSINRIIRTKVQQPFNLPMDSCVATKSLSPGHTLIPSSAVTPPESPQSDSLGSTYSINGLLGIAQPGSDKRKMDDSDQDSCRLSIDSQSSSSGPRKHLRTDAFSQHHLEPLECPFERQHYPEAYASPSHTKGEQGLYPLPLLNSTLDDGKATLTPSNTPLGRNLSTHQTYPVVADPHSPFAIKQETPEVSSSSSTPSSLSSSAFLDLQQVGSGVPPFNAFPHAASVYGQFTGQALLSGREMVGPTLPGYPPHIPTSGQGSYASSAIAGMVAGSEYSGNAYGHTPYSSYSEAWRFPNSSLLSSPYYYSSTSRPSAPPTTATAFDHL

With `CCOC(=O)C1=C(C(=O)OCC)C2N(Cc3ccc(C#N)cc3)c3ccccc3[C@@]23C[C@@H](C(=O)OC)N(S(=O)(=O)c2ccc(OC)cc2)C3=N1` (some centres not stated) as the compound, how does the IC50 [1] read?
The IC50 was > 69.5 µM (inactive).

What about the IC50 [2] of the same compound?
The IC50 was 15.4 µM (inactive).

Which results are given for `C[C@H]1CCCCO[C@H](CN(C)C(=O)C2CCCCC2)[C@@H](C)CN([C@@H](C)CO)C(=O)c2cc(NS(=O)(=O)c3ccc(Cl)cc3)ccc2O1`?
AC50 (Paired box protein Pax-8): 11.5 µM (active); AC50 [3]: 33.9 µM (active); AC50 [4]: > 70 µM (inactive)

For `Cc1nc2c(C)cccc2cc1C(=O)N/N=C/c1ccc(O)cc1`, which AC50 [5] is on record?
The AC50 was 0.025 µM (active).

What about the IC50 [6] of the same compound?
Its IC50 is 33.1 µM (active).

And the EC50 [7]?
The EC50 was > 53 µM (inactive).

What about the IC50 [8] of the same compound?
The IC50 was > 20 µM (inactive).

What does the source list for `C/C(=N/Nc1ccc([N+](=O)[O-])cc1)c1ccc(C)cc1C`?
AC50 [9]: 5.92 µM (active); IC50 [1]: > 69.5 µM (inactive); IC50 [2]: 20.5 µM (inactive)

For `O=[N+]([O-])c1ccc(-c2cc(O)n3nc(-c4ccc(F)cc4)cc3n2)cc1`, which EC50 [10] is on record?
The EC50 was 4.2 µM (active).

What about the EC50 (Streptococcus) of the same compound?
Its EC50 is 6.44 µM (active).

What about the IC50 [6] of the same compound?
The IC50 was 27.4 µM (active).

What about the EC50 [7] of the same compound?
The EC50 was > 53 µM (inactive).

What about the IC50 [8] of the same compound?
The IC50 was 12.9 µM (active).

What does the source list for `Cn1c(C(=O)NN)cc2cc(Oc3ccccc3)ccc21`?
IC50 (Galanin receptor type 3): 8.17 µM (active); EC50 (cells): > 29.9 µM (inactive)

With `N=C(NOC(=O)N1c2ccccc2Sc2ccccc21)c1ccc(Br)cc1` as the compound, how does the CC50 [11] read?
The CC50 was 63.6 µM (active).

Which AC50 [12] does the source give for `O=C(NC1CCCCC1)c1[nH]nc2c1CCCCC2` here?
Its AC50 is 6.09 µM (active).

And the AC50 [13]?
Its AC50 is 29.7 µM (active).

What about the AC50 [14] of the same compound?
Its AC50 is 16.3 µM (active).

What about the AC50 [15] of the same compound?
The AC50 was 13.8 µM (active).

What about the AC50 [16] of the same compound?
Its AC50 is 7.38 µM (active).

What about the AC50 [17] of the same compound?
The AC50 was 37.1 µM (active).

What about the AC50 [18] of the same compound?
Its AC50 is > 52 µM (inactive).

What about the AC50 [19] of the same compound?
Its AC50 is 3.2 µM (active).

And the AC50 [20]?
The AC50 was 2.24 µM (active).

And the AC50 [21]?
Its AC50 is > 52 µM (inactive).

Which results are given for `CCOC(=O)c1[nH]c2ccc(OC)cc2c1NS(=O)(=O)c1ccc(Cl)s1`?
IC50 (Galanin receptor type 3): 1.45 µM (active); EC50 (cells): > 29.9 µM (inactive)

What does the source list for `Cc1ccccc1S(=O)(=O)N(C)C[C@@H]1OCc2ccccc2-c2c(n(C)c3ccccc23)C(=O)N([C@H](C)CO)C[C@@H]1C`?
AC50 [12]: 1.37 µM (active); AC50 [13]: 31.6 µM (active); AC50 [14]: 1.75 µM (active); AC50 [15]: 1.66 µM (active); AC50 [16]: 3.16 µM (active)
